Test results from patent US20150071941A1, “TREATMENT OF ISCHEMIC RETINOPATHIES” (THE JOHNS HOPKINS UNIVERSITY, priority 2012, published 2015).
“Also recorded” adds a separate entry of the source.

Key:
[1] = system: human dermal microvascular endothelial cells (HMVECs); test: In vitro endothelial cell permeability assay (passage of FITC-dextran through HMVEC monolayer); format: cell-based
Description: Permeability Assays. In vitro permeability assay was performed as previously described (48). Briefly, HMVEC were seeded on collagen-coated transwells ([…], PTFE; Corning), and allowed to grow as a 3-d-old mature monolayer. Following overnight starvation, 500 μL and 100 μL of conditioned medium were added for 30 min (37° C.) to the bottom and top chamber, respectively. A total of 100 μL of 1 mg/mL FITC dextran (molecular weight=40,000; Invitrogen) was added for 30 min. Fluorescence was quantified using a SpectraMax M5 Microplate Reader (Molecular Devices) with excitation at 494 nm and emission at 521 nm.

[2] = system: Vegf; test: OIR mouse model: RT-PCR of Vegf mRNA in neurosensory retina; format: in vivo; settings: OIR mice P12-P14, daily intraperitoneal digoxin
Description: (§1) Oxygen-Induced Retinopathy (OIR). […] At P12 the mice were returned to room air.
(§2) Quantitative Real-Time RT-PCR. RNA was isolated from culture cells or retinas with RNeasy Mini Kit (Qiagen) and cDNA prepared using MuLV Reverse Transcriptase (Applied Biosystems, Carlsbad, Calif.). Quantitative real-time PCR was performed with Power SYBR Green PCR Master Mix (Applied Biosystems) and MyiQ Real-Time PCR Detection System (Bio Rad). Normalization was done using cyclophilin A for mouse tissue and cell lines and β-actin for human cell lines. Primers for qPCR include: human VEGF, forward—[…] (SEQ ID NO:1) and reverse—[…] (SEQ ID NO:2); human ANGPTL4, forward—[…] (SEQ ID NO:3) and reverse—[…] (SEQ ID NO:4); human β-actin, forward—[…] (SEQ ID NO:5) and reverse—[…](SEQ ID NO:6); mouse VEGF, forward—[…] (SEQ ID NO:7) and reverse—[…](SEQ ID NO:8); mouse ANGPTL4, forward—[…] (SEQ ID NO:9) and reverse—[…] (SEQ ID NO:10); mouse cyclophilin A, forward—[…] (SEQ ID NO:11) and reverse—[…] (SEQ ID NO:12).

[3] = system: GFAP; test: OIR mouse model: GFAP expression in Müller cells; format: in vivo; settings: OIR mice, administration of digoxin
Excerpt: as §1

[4] = system: inner retina vessels; test: OIR mouse model: vascular permeability / retinal edema (inner retinal cysts, extravascular albumin); format: in vivo; settings: P13 OIR mice, digoxin 2 mg/kg daily intraperitoneal
Description: as §1
(§3) Quantitation of vascular permeability in the retina was assessed by examining 4 high powered fields of the posterior retina from three animals and counting the number of CD31-labled inner retina vessels in the posterior retina that had visible adjacent extravascular albumin (detected by immunofluorescence) as a percent of the total vessels in each field.
(§4) Immunohistochemistry and Immunofluorescence. Immunohistochemical detection of extravascular albumin (Cedarlane-Nordic) was performed on cryopreserved mouse tissue sections using a nitroblue tetrazolium (NBT) development system using Streptavidin alkaline phosphatase (APase) as previously described (53) Immunohistochemical detection of HIF-1 alpha (Abcam), human and murine ANGPTL4 (Abcam and Lifespan BioSciences, respectively), VEGF (Santa Cuz), CD34 (Covance), and GFAP (Sigma) were performed in paraffin embedded human tissue (obtained from the Wilmer Eye Institute Ocular Pathology Archives with approval from the Johns Hopkins School of Medicine Internal Review Board) and mice cryopreserved tissue using ABC system (Dako) as previously described (4).

[5] = system: ANGPTL4; test: MIO-M1 Müller cells: ANGPTL4 mRNA (RT-PCR) and protein (Western blot/ELISA); format: cell-based, human; settings: digoxin pretreatment (100 ng as printed), 2 hours prior hypoxia
Description: (§5) Cell Culture and Reagents. MIO-M1 cells were a generous gift from Astrid Limb (University College London Institute of Ophthalmology). Isolation of primary Müller cells was performed as previously described (51). Primary human dermal microvascular endothelial cells (HMVEC) were obtained from Lonza and cultured according the manufacter's protocols. Recombinant ANGPTL4 and VEGF, and ANGPTL4 and VEGF ELISA kits were obtained from R&D Systems. The KDR inhibitor, SU1498, and rapamycin were obtained from Calbiochem. Digoxin was obtained from Sigma. Predesigned control (Scrambled) and ANGPTL4 and HIF-1β siRNA sequences were obtained from Qiagen. AdLacZ and AdCAS have been previously described (26).
(§6) Quantitative Real-Time RT-PCR. RNA was isolated from culture cells or retinas with RNeasy Mini Kit (Qiagen) and cDNA prepared using MuLV Reverse Transcriptase (Applied Biosystems, Carlsbad, Calif.). Quantitative real-time PCR was performed with Power SYBR Green PCR Master Mix (Applied Biosystems) and MyiQ Real-Time PCR Detection System (Bio Rad). Normalization was done using cyclophilin A for mouse tissue and cell lines and β-actin for human cell lines. Primers for qPCR include: human VEGF, forward—[…] (SEQ ID NO:1) and reverse—[…] (SEQ ID NO:2); human ANGPTL4, forward—[…] (SEQ ID NO:3) and reverse—[…] (SEQ ID NO:4); human β-actin, forward—[…] […]

[6] = system: Angptl4; test: OIR mouse model: RT-PCR of Angptl4 mRNA in neurosensory retina; format: in vivo; settings: OIR mice P12-P14, daily intraperitoneal digoxin
Description: as §1, §2

[7] = system: VEGF; test: MIO-M1 Müller cells: VEGF mRNA (RT-PCR) and secreted protein (ELISA); format: cell-based, human; settings: digoxin 100 nM, 2 hours prior to hypoxia; 8 hours hypoxia
Description: as §5, §6

[8] = system: inner retina vessels; test: Intravitreal injection of recombinant protein into the mouse eye: retinal vascular permeability; format: in vivo
Description: […]. Intraocular injections with 1 μl of rmVEGF or rmANGPTL4 (200 ng/ul) were performed with a nanofil syringe (World Precision Instruments) using a 36G beveled needle. Intraocular injections with 1 μl of AdLacZ or AdCAS (2×10^12 VP/mL) were performed with pulled-glass micropipettes and a Harvard pump microinjection apparatus as previously described (52).
as §3, §4

[9] = system: angiogenesis; test: Promotion of angiogenesis / NV in vitro and in vivo (Example 9, cornea pocket assay)
Excerpt: Cell Culture: ARPE19, human ES derived RPE cells, primary murine RPE cells. Rat: Subretinal lipid hydroperoxide CNV Model. Assays used included Cornea pocket assay, Western Blot and RT-PCR, and Immunohistochemistry and Immunofluorescence. Patient Samples: ELISA analysis of ANGPTL4 levels in aqueous humor.

[10] = system: mouse ear vasculature; test: Modified Miles assay, vascular permeability in the mouse ear; format: in vivo; settings: intradermal injection of ANGPTL4 0.2 μg vs PBS
Description: In vivo permeability was assessed using a modified Miles assay as previously described (48). Briefly, Evan Blue dye was injected into mouse tail veins (200 μL of 12 mg/ml solution in PBS). After 5 minutes, animals were anesthetized using Tribromoethanol. 20 ul 0.2 ug VEGF or 0.2 ug ANGPTL4 was injected intradermally into the right ear (PBS was injected into left ear as a control). After 8 minutes, photographs were taken. Levels of Evans blue dye was then extracted from mouse ear in 1 mL of formamide at 55° C. for 16 hours and dye content quantified at 610 nm using a spectrophotometer (48).

Molecule: CC(C)c1cc(/C=C(\C#N)C(=O)NCCCc2ccccc2)cc(C(C)C)c1O [SU1498]
- endothelial cell permeability promoted by 100 ng recombinant human VEGF ([1]; SU1498 5 μM pre-treatment of endothelial cells): completely blocked the induction of endothelial cell permeability; also recorded: abolishes the promotion of endothelial cell permeability by 100 ng of recombinant human VEGF
- endothelial cell permeability promoted by conditioned media from hypoxic MIO-M1 cells ([1]; SU1498 5 μM pre-treatment of endothelial cells, 8 hours hypoxia): only a partial inhibition of endothelial cell permeability; also recorded: only partially blocks the promotion of endothelial cell permeability

Molecule: C[C@H]1O[C@@H](O[C@H]2[C@@H](O)C[C@H](O[C@H]3[C@@H](O)C[C@H](O[C@H]4CC[C@@]5(C)[C@H](CC[C@@H]6[C@@H]5C[C@@H](O)[C@]5(C)[C@@H](C7=CC(=O)OC7)CC[C@]65O)C4)O[C@@H]3C)O[C@@H]2C)C[C@H](O)[C@@H]1O [digoxin]
- induction of Vegf mRNA [2]: only partially inhibited the induction of Vegf
- GFAP expression [3]: not affected
- vascular permeability (inner retinal cysts, extravasated albumin) [4]: decrease in vascular permeability; also recorded: inhibits the increase in inner retinal cysts and extravasated albumin
- ANGPTL4 RNA and protein induced by hypoxia [5]: inhibited
- endothelial cell permeability promoted by conditioned media from hypoxic MIO-M1 cells ([1]; MIO-M1 pre-treated with 100 nM digoxin 2 hours prior to 8 hour hypoxia): potently blocked the property of the conditioned media to promote an increase in endothelial cell permeability; also recorded: inhibits the promotion of endothelial cell permeability by hypoxic MIO-M1 cells
- induction of Angptl4 mRNA [6]: completely abolished the induction of Angptl4
- VEGF mRNA expression and protein secretion [7]: inhibited VEGF mRNA expression and protein secretion; also recorded: inhibits

Molecule: VEGF
- endothelial cell permeability ([1]; VEGF 100 ng): promotes endothelial cell permeability

B1: rmANGPTL4: recombinant murine ANGPTL4 injected intravitreally (protein, UniProt Q9Z1P8 24-410, looked up)
Angiopoietin-related protein 4: QGRPAQPEPPRFASWDEMNLLAHGLLQLGHGLREHVERTRGQLGALERRMAACGNACQGPKGKDAPFKDSEDRVPEGQTPETLQSLQTQLKAQNSKIQQLFQKVAQQQRYLSKQNLRIQNLQSQIDLLAPTHLDNGVDKTSRGKRLPKMTQLIGLTPNATHLHRPPRDCQELFQEGERHSGLFQIQPLGSPPFLVNCEMTSDGGWTVIQRRLNGSVDFNQSWEAYKDGFGDPQGEFWLGLEKMHSITGNRGSQLAVQLQDWDGNAKLLQFPIHLGGEDTAYSLQLTEPTANELGATNVSPNGLSLPFSTWDQDHDLRGDLNCAKSLSGGWWFGTCSHSNLNGQYFHSIPRQRQERKKGIFWKTWKGRYYPLQATTLLIQPMEATAAS
- inner retinal cysts (H & E) ([8]; 200 ng rmANGPTL4 intravitreal vs PBS): increased inner retinal cysts
- extravasation of albumin (immunohistochemistry) ([8]; 200 ng rmANGPTL4 intravitreal vs control): extravasation of albumin
- vascular permeability (leakage of plasma and albumin) ([8]; rmANGPTL4 intravitreal, retinas after 48 hours): marked and statistically significant increase in vascular permeability

B2: ANGPTL4: Recombinant angiopoietin-like 4 protein obtained from R&D Systems (protein, UniProt Q9BY76 26-406, looked up)
Angiopoietin-related protein 4: GPVQSKSPRFASWDEMNVLAHGLLQLGQGLREHAERTRSQLSALERRLSACGSACQGTEGSTDLPLAPESRVDPEVLHSLQTQLKAQNSRIQQLFHKVAQQQRHLEKQHLRIQHLQSQFGLLDHKHLDHEVAKPARRKRLPEMAQPVDPAHNVSRLHRLPRDCQELFQVGERQSGLFEIQPQGSPPFLVNCKMTSDGGWTVIQRRHDGSVDFNRPWEAYKAGFGDPHGEFWLGLEKVHSITGDRNSRLAVQLRDWDGNAELLQFSVHLGGEDTAYSLQLTAPVAGQLGATTVPPSGLSVPFSTWDQDHDLRRDKNCAKSLSGGWWFGTCSHSNLNGQYFRSIPQQRQKLKKGIFWKTWRGRYYPLQATTMLIQPMAAEAAS
- promotion of angiogenesis [9]: promoted angiogenesis both in vitro and in vivo
- endothelial cell permeability ([1]; recombinant human ANGPTL4 2.5 or 5 μg): potently induced endothelial cell permeability
- endothelial cell permeability ([1]; recombinant human ANGPTL4 2.5 or 5 μg, listed as recombinant human ANGPTL4): promotes endothelial cell permeability
- vascular permeability (Evans blue dye, 610 nm) [10]: remarkable increase in vascular permeability; also recorded: marked increase in dye
